The text below walks through data of patent publication US20250236608A1, “EGFR INHIBITORS” (Blueprint Medicines Corporation, priority 2022, published 2025).

The structures appear in SMILES notation.

The target in one experiment is EGFR L858R (Homo sapiens (Human), UniProt P00533, L858R). Description: Biochemical EGFR inhibition assay, EGFR L858R. Conditions: Caliper mobility shift; 1.0 mM ATP or ATP Km; read-out: Enz EGFR_L858R IC50.
Experiment [1] addresses pEGFR (Tyr1068) in PC-9 cells (Ex19Del) (Homo sapiens (Human), UniProt P00533, DEL746-750). Briefly: PC-9 pEGFR AlphaLISA assay. The class given is cell-based. Conditions: 4 hours incubation, p-EGFR (Tyr1068) AlphaLISA, read-out: Ext pEGFR_PC-9 Ex19Del IC50. The method in brief: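 Compounds are added in ten 4-fold dilutions to adherent cells grown in serum-containing (10% FBS) phenol-free DMEM and left for 4 hours at 37° C. Phosphorylated receptor in lysates is quantified by bead-based AlphaLISA. IC50 values derive from inhibition plotted against log dose.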
(In Alpha technology, singlet oxygen from a donor bead excites a nearby acceptor bead.)

A further experiment deals with EGFR (d746-750) (Homo sapiens (Human), UniProt P00533, DEL746-750). Briefly: Biochemical EGFR inhibition assay, EGFR (d746-750). Conditions: Caliper mobility shift; 1.0 mM ATP or ATP Km; read-out: Enz EGFR_Exon19-del746-750 IC50.
EGFR (d746-750), sequence (P00533 other isoform, or with tags, fused parts or gaps del 1-694/del 746-750 limits assumed): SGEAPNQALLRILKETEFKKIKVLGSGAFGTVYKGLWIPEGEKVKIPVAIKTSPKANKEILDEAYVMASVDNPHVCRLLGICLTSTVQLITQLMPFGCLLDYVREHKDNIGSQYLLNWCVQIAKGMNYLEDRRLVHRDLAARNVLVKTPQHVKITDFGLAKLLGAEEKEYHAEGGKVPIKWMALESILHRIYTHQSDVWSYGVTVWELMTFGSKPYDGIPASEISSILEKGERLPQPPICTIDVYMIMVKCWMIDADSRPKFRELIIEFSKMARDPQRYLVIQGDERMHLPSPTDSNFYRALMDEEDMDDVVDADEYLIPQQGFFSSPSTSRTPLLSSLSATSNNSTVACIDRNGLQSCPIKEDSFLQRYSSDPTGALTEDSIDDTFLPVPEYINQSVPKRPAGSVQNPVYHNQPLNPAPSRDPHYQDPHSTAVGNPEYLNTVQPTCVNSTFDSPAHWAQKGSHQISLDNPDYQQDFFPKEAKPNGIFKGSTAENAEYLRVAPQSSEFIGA
A further experiment relates to EGFR mutant NSCLC. Conditions: cited from earlier work; for objective response rate (ORR): EGFR M+ NSCLC patients treated first line (1 L).

pEGFR (Tyr1068) in PC-9 cells (Ex19Del), sequence (P00533 other isoform, or with tags, fused parts or gaps del 746-750): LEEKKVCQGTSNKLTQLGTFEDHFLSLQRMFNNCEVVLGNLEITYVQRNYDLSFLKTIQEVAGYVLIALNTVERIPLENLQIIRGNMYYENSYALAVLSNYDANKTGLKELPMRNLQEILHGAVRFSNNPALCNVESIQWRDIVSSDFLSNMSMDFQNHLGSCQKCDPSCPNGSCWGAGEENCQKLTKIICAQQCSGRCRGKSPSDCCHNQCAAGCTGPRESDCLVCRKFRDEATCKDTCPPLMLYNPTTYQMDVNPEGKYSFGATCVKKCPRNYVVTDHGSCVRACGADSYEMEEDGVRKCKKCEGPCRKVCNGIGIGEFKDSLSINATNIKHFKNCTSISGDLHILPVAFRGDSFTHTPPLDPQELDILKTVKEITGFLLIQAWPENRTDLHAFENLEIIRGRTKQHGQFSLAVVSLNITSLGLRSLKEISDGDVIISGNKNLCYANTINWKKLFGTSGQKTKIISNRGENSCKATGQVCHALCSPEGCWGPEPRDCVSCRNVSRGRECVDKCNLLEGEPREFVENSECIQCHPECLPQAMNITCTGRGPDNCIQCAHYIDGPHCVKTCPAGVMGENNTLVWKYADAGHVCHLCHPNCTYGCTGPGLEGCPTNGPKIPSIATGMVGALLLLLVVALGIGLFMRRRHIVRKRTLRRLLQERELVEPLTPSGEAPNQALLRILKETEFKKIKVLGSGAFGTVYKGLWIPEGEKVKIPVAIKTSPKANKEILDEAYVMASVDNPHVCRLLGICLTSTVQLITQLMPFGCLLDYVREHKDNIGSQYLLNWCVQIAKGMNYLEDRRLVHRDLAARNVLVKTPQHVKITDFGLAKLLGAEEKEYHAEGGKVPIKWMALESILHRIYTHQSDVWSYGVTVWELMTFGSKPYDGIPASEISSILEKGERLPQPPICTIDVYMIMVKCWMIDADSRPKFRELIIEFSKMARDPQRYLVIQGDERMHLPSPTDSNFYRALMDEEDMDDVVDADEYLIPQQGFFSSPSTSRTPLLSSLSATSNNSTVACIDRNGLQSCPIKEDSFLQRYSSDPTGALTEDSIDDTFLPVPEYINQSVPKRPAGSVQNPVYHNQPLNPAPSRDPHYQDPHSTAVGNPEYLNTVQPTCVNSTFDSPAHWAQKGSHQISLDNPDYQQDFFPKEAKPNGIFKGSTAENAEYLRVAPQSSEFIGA
EGFR L858R, sequence (P00533 25-1210 L858R): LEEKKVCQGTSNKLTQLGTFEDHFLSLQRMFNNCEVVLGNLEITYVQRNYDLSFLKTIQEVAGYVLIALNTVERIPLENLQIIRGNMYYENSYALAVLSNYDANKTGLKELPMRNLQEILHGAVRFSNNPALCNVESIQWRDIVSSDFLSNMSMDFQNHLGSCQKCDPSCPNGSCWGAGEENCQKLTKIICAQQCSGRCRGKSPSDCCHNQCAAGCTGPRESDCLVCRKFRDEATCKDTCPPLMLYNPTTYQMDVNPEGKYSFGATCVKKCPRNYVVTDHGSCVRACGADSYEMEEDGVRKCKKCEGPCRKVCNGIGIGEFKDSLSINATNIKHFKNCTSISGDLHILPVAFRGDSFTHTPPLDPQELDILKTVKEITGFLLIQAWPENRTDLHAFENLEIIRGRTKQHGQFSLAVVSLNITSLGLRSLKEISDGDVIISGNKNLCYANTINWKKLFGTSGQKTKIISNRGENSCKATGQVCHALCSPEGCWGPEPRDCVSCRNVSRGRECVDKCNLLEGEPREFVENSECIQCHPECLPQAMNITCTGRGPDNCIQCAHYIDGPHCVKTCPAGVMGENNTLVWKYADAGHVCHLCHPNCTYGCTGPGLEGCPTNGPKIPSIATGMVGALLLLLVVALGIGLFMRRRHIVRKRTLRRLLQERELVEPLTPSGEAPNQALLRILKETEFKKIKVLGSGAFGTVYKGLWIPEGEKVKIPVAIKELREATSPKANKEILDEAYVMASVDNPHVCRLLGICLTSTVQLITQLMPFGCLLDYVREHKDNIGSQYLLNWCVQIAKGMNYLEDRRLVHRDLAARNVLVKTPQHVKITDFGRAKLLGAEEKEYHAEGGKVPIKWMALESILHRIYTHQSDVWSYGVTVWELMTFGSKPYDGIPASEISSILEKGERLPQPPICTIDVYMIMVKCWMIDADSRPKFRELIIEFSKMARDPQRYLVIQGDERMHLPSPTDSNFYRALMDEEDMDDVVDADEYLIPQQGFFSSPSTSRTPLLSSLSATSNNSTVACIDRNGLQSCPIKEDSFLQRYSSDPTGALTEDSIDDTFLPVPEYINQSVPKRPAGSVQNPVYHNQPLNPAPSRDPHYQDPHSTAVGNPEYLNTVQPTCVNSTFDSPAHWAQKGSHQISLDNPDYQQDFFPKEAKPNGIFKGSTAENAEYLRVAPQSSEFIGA

The term IC50 denotes the concentration needed to halve the response being measured. `[2H]C([2H])([2H])n1ncc(-c2ncnc3cc(OC)c(NC(=O)C45CC(N(C)C)(C4)C5)nc23)c1-c1ccccc1` [Example 493]: the IC50 on EGFR L858R was 92.4 nM; in experiment [1], 258 nM; at EGFR (d746-750), 31.9 nM.
For the compound `[2H]C([2H])([2H])n1cc(-c2ncnc3cc(OC)c(NC(=O)C45CC(N(C)C)(C4)C5)nc23)c(-c2ccccc2)n1` [Example 494], the IC50 came to 4.4 nM on EGFR L858R, 3.6 nM in experiment [1] and 1.2 nM on EGFR (d746-750).
With `CCn1ncc(-c2ncnc3cc(-c4cnn(C)c4)ccc23)c1-c1ccccc1` [Example 495], the IC50 on EGFR L858R stood at 1.2 nM; in experiment [1], 15.3 nM; at EGFR (d746-750) it was 2.3 nM.
Taken in the same sequence, the figures for `CCn1cc(-c2ncnc3cc(-c4cnn(C)c4)ccc23)c(-c2ccccc2)n1` [Example 496] were 0.7 nM, 0.4 nM and 0.6 nM.
Taken in the same sequence, the figures for `Cn1cc(-c2ccc3c(-c4cnn(C)c4-c4ccccc4)ncnc3c2)cn1` [Example 497] were 1.4 nM, 38.6 nM and 1.8 nM.
Taken in the same sequence, the figures for `CCC(=O)Nc1cc2c(-c3cnn(C4CCOCC4)c3-c3ccccc3)ncnc2cc1OC` [Example 498] were 306 nM, 589 nM and 349 nM.
With `CCC(=O)Nc1cc2c(-c3cnn(C4COC4)c3-c3ccccc3)ncnc2cc1OC` [Example 499], the values for the IC50 (at EGFR L858R; in experiment [1]; on EGFR (d746-750)) were 17 nM, 495 nM and 33 nM, respectively.
The corresponding values for `CCC(=O)Nc1cc2c(-c3cnn(CC(F)F)c3-c3ccccc3)ncnc2cc1OC` [Example 500] are 2.9 nM, 55.7 nM and 7 nM.
As for `COc1cc2ncnc(-c3cn(C)nc3-c3ccccc3)c2cc1N` [Preparation 190], the values for the IC50 (at EGFR L858R; in experiment [1]; at EGFR (d746-750)) were 1.3 nM, 5.4 nM and 0.8 nM, respectively.
`C#Cc1cccc(Nc2ncnc3cc(OCCOC)c(OCCOC)cc23)c1` [erlotinib]: in the experiment on EGFR mutant NSCLC, the “objective response rate (ORR)” value is given as 60-85%.
Regarding `C=CC(=O)Nc1cc(Nc2nccc(-c3cn(C)c4ccccc34)n2)c(OC)cc1N(C)CCN(C)C` [osimertinib], the “objective response rate (ORR)” value in the experiment on EGFR mutant NSCLC is recorded as 60-85%. Moreover, in the experiment on EGFR mutant NSCLC (first line, NSCLC harboring del 19 and L858R mutations), the “progression-free survival (PFS)” value is 18.9 mo.
